In patent US10550150B2, “Short-chain peptides as Kappa (κ) opioid receptors (KOR) agonist” (CADILA HEALTHCARE LIMITED, priority 2015, dated 2020):
Read-outs that look alike come from different tables or passages of the source. *1 amine or outer side, *2 acyl side, *3 side chain or, on linkers, in order; H or OH if unused. Where a SMILES comes first, the peptide text is derived from it. [ ]: non-standard residue; d: D form. The star is where a group is joined. X26 = O=C(CN1CC2CC(C1)N2*)OCc1ccccc1; X9 = O=C(CN1CC2CC(C1)N2[*:1])[*:2]; X28 = O=C(O)CCN(CCC(=O)O)*; X4 = O=C(O)CN1CC2CC(C1)N2*; Ac6c = NC1(C(=O)O)CCCCC1; Ac5c = NC1(C(=O)O)CCCC1; X10 = OCCN(CCO)*

What was measured:
[1] = tested on: acetic acid induced writhing; experiment: Acetic acid-induced writhing model (antinociceptive activity); type: in vivo; details: acetic acid induced pain model, ICR mice (n = 6), iv
Procedure: In Vivo (ED50) Determination, Using Acetic Acid-Induced Writhing Model
The acetic acid induced writhing assay can detect antinociceptive activity for opioid drug, acting at peripheral, spinal and supraspinal levels. Animals were fasted 12 to 16 h prior testing. The nociceptive response (abdominal contractions or writhes) was induced by diluted acetic acid (0.6%, 10 ml/kg, for mice and 2.5%, 0.5 ml/rat) administered intraperitoneally (i.p.) at time 0 min.
In mouse experiments, compounds were administered orally, intravenously (i.v.) or subcutaneously (s.c.). To determine the antinociceptive potency and efficacy, full dose-response curves were constructed with test compounds, given 5 min prior to acetic acid administration. The duration of action was determined by using increasing pretreatment time (5, 60, and 120 min.), prior to acetic acid administration, for a sub-maximally effective dose defined during the dose-response curve study. In rat experiments, compounds were administered orally, intravenously (i.v.) or subcutaneously (s.c.), 15 min prior to acetic acid administration. The number of writhes was counted over the 15 min period following acetic acid administration. A writhe is defined as a constriction of the abdominal area, often with extension of the hind legs. Percentage maximum possible effect (MPE) was calculated as: % MPE=100−[(No. of writhes in test compound treated animal/No. of writhes in vehicle treated animal)]×100. ED50 dose was determined using GraphPad Prism.

[2] = biological target: T1, Kappa (κ) opioid receptors (KOR) (Homo sapiens, UniProt P41145); experiment: In vitro KOR agonistic activity, cAMP based functional assay; type: cell-based
T1 construct: host or cells: unnamed cells grown in Ham's F-12 medium
Procedure: a) In Vitro (EC50) Determination, Using cAMP Based Functional Assay:
In vitro, KOR agonistic activity of test compounds were assessed using cAMP based functional assay. A 96-well plate was seeded at the density of 30,000 cells/well in 100 μl/well of complete Ham's F-12 medium. After seeding, the plates were incubated overnight at 37° C., 5% CO2, in CO2 Incubator. Overnight medium was discarded and plate washed with 100 μl/well of sterile PBS. Then 90 μl of 0.1 mM IBMX containing 0.5% Fatty acid free BSA in plain HamsF12 was added to each well. This was allowed to incubate for 30 minutes at 37° C., 5% CO2. Forskolin 20 μM in 0.5% Fatty acid free BSA was added to each well and allowed to incubate at room temperature for 5 minutes. Dilution of test compounds was made at 200× in DMSO and then diluted 1:10 times in BSA containing plain HamsF12. Agonist (test compounds, in 10% DMSO) was added to each well (5 μl) and allowed to incubate for 20 minutes at 37° C., 5% CO2. After 20 minutes, media was aspirated from the wells and the wells were washed with 1×PBS. Cell lysis buffer 4× (Arbor Assays, Cat # X074-60 ML) was diluted 1:4 in MilliQ and 90 μl of this buffer was added per well. Cells were allowed to shake at 500 rpm, room temperature for 20 minutes. Cell lysate was collected in 1.5 ml eppendorf tubes and centrifuged at 13.2 k rpm, 4° C. for 15 minutes. 50 μl of the supernatant of cell lysate was then used for cAMP estimation by cAMP direct ELISA kit (Arbor Assays, Cat # K019-H5).

[3] = cAMP based functional assay, forskolin stimulated, read-out: In-vitro EC50
[4] = refers to Table-4, read-out: in vitro KOR agonistic activity EC50

T1 sequence (P41145 whole entry): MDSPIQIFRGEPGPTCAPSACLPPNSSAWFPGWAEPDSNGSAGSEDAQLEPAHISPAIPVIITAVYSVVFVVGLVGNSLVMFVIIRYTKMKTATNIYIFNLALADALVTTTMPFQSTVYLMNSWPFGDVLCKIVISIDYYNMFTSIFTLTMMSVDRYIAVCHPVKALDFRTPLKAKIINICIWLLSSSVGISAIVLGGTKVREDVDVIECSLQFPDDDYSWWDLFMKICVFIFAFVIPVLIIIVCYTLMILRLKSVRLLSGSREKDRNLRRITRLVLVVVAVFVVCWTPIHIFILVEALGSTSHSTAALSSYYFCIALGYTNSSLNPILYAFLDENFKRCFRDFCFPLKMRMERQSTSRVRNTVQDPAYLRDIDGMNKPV

| Compound | In-vivo ED50 [1] | EC50 [2, 3] | EC50 [2, 4] |
| --- | --- | --- | --- |
| CC(C)CC(NC(=O)C(Cc1ccccc1)NC(=O)C(N)Cc1ccccc1)C(=O)NC(CCCCN)C(=O)N1CC2CC1CN2Cc1ccccc1 (centres unmarked) [Compound 62] | 0.31 mpk |  |  |
| CC(C)CC(NC(=O)C(Cc1ccccc1)NC(=O)C(N)Cc1ccccc1)C(=O)NC(CCCCN)C(=O)N1C2CC1CN(CC(=O)N(CCC(=O)O)CCC(=O)O)C2 (centres unmarked) [Compound 100] (H-FFLK[X9]-X28; configuration not given here) |  | 0.015 nM |  |
| CC(C)CC(NC(=O)C(Cc1ccccc1)NC(=O)C(N)Cc1ccccc1)C(=O)NC(CCCCN)C(=O)N1C2CC1CN(C(=O)C(N)CO)C2 (centres unmarked) [Compound 97] | 0.42 mpk |  |  |
| CC(C)CC(NC(=O)C(Cc1ccccc1)NC(=O)C(N)Cc1ccccc1)C(=O)NC(CCCCN)C(=O)N1C2CC1CN(CC(=O)N(CCO)CCO)C2 (centres unmarked) [Compound 101] (H-FFLK[X9]-X10; configuration not given here) |  | 0.012 nM |  |
| CC(C)CC(NC(=O)C(Cc1ccccc1)NC(=O)C(N)Cc1ccccc1)C(=O)NC(CCCCN)C(=O)N1C2CC1CN(CC(=O)NC(CCC(=O)O)C(=O)O)C2 (centres unmarked) [Compound 104] (H-FFLK[X9]E-OH; configuration not given here) | 0.07 mpk |  |  |
| CC(C)CC(NC(=O)C(Cc1ccccc1)NC(=O)C(N)Cc1ccccc1)C(=O)NC(CCCCN)C(=O)N1CC2=C(CN(CC(N)=O)C2)C1 (centres unmarked) [Compound 5] | 0.07 mpk | 0.009 nM | < 0.1 nM |
| NCCCCC(NC(=O)C1(NC(=O)C(Cc2ccccc2)NC(=O)C(N)Cc2ccccc2)CCCC1)C(=O)N1C2CC1CN(CC(=O)O)C2 (centres unmarked) [Compound 42] (H-FF[Ac5c]K-X4; configuration not given here) | 0.23 mpk |  |  |
| CCOC(=O)C1CC2CN(C(=O)C(CCCCN)NC(=O)C(CC(C)C)NC(=O)C(Cc3ccccc3)NC(=O)C(N)Cc3ccccc3)CC2C1 (centres unmarked) [Compound 27] |  | 0.009 nM |  |
| NCCCCC(NC(=O)C1(NC(=O)C(Cc2ccccc2)NC(=O)C(N)Cc2ccccc2)CCCCC1)C(=O)N1C2CC1CN(CC(=O)O)C2 (centres unmarked) [Compound 41] (H-FF[Ac6c]K-X4; configuration not given here) |  | 0.015 nM |  |
| CC(C)CC(NC(=O)C(Cc1ccccc1)NC(=O)C(N)Cc1ccccc1)C(=O)NC(CCCCN)C(=O)N1CC2CC(C1)N2 (centres unmarked) [Compound 51] |  | 0.012 nM |  |
| CC(C)CC(NC(=O)C(Cc1ccccc1)NC(=O)C(N)Cc1ccccc1)C(=O)NC(CCCCN)C(=O)N1CC2CN(S(C)(=O)=O)CC2C1 (centres unmarked) [Compound 19] | 0.28 mpk |  |  |
| CC(C)CC(NC(=O)C(Cc1ccccc1)NC(=O)C(N)Cc1ccccc1)C(=O)NC(CCCCN)C(=O)N1C2CC1CN(Cc1ccccc1)C2 (centres unmarked) [Compound 34, N-(6-amino-1-(3-benzyl-3,6-diazabicyclo[3.1.1]heptan-6-yl)-1-oxohexan-2-yl)-2-(2-(2-amino-3-phenylpropanamido)-3-phenylpropanamido)-4-methylpentanamide] |  | 0.088 nM |  |
| CC(C)CC(NC(=O)C(Cc1ccccc1)NC(=O)C(N)Cc1ccccc1)C(=O)NC(CCCCN)C(=O)N1CC2CN(CCO)CC2C1 (centres unmarked) [Compound 18] | 1 mpk |  |  |
| CC(C)CC(NC(=O)C(Cc1ccccc1)NC(=O)C(N)Cc1ccccc1)C(=O)NC(CCCCN)C(=O)N1CC2CC(CN)CC2C1 (centres unmarked) [Compound 26] |  | 0.22 nM |  |
| CC(C)CC(NC(=O)C(Cc1ccccc1)NC(=O)C(N)Cc1ccccc1)C(=O)NC(CCCCN)C(=O)N1CC2CN(CC(=O)O)CC2C1 (centres unmarked) [Compound 16] | 0.1 mpk | 0.004 nM | < 0.1 nM |
| CC(C)CC(NC(=O)C(Cc1ccccc1)NC(=O)C(N)Cc1ccccc1)C(=O)NC(CCCCN)C(=O)N1C2CC1CN(C)C2 (centres unmarked) [Compound 33] |  | 0.009 nM |  |
| CCOC(=O)CN1CC2CN(C(=O)C(CCCCN)NC(=O)C(CC(C)C)NC(=O)C(Cc3ccccc3)NC(=O)C(N)Cc3ccccc3)CC2C1 (centres unmarked) [Compound 15] | 0.1 mpk | 0.007 nM | < 0.1 nM |
| CC(C)CC(NC(=O)C(Cc1ccccc1)NC(=O)C(N)Cc1ccccc1)C(=O)NC(CCCCN)C(=O)N1CC2CN(CC(N)=O)CC2C1 (stereo not drawn) [Compound 17, H2N-Phe-Phe-Leu-Lys-Hpp-CONH2] |  | 0.38 nM |  |
| CC(C)CC(NC(=O)C(Cc1ccccc1)NC(=O)C(N)Cc1ccccc1)C(=O)NC(CCCCN)C(=O)N1CC2CNCC2C1 (centres unmarked) [Compound 13] | 1 mpk |  |  |

| Compound | In-vivo ED50 [1] | EC50 [2, 3] | EC50 [2, 4] |
| --- | --- | --- | --- |
| NCCCCC(NC(=O)C1(NC(=O)C(Cc2ccccc2)NC(=O)C(N)Cc2ccc(O)cc2)CCCCC1)C(=O)N1C2CC1CN(CC(=O)O)C2 (centres unmarked) [Compound 92] (H-YF[Ac6c]K-X4; configuration not given here) |  | 0.018 nM |  |
| CC(C)CC(NC(=O)C(Cc1ccccc1)NC(=O)C(N)Cc1ccccc1)C(=O)NC(CCCCN)C(=O)N1CC2CC(=O)CC2C1 (centres unmarked) [Compound 23] |  | 0.085 nM |  |
| CC(C)CC(NC(=O)C(Cc1ccccc1)NC(=O)C(N)Cc1ccccc1)C(=O)NC(CCCCN)C(=O)N1C2CC1CN(CCO)C2 (centres unmarked) [Compound 38] | 0.04 mpk |  |  |
| CC(C)CC(NC(=O)C(Cc1ccccc1)NC(=O)C(N)Cc1ccccc1)C(=O)NC(CCCCN)C(=O)N1C2CCC1CC(O)C2 (centres unmarked) [Compound 105] |  | 0.002 nM |  |
| NCCCCC(NC(=O)C1(NC(=O)C(Cc2ccccc2)NC(=O)C(N)Cc2ccccc2)CCCCC1)C(=O)N1C2CC1CN(CC(=O)OCc1ccccc1)C2 (centres unmarked) [Compound 50] (H-FF[Ac6c]K-X26; configuration not given here) |  | 0.008 nM |  |
| CC(C)CC(NC(=O)C(Cc1ccccc1)NC(=O)C(N)Cc1ccccc1)C(=O)NC(CCCCN)C(=O)N1C2CC1CN(C(=O)CCCCCN)C2 (centres unmarked) [Compound 93] | 0.11 mpk |  |  |
| CC(C)CC(NC(=O)C(Cc1ccccc1)NC(=O)C(N)Cc1ccccc1)C(=O)NC(CCCCN)C(=O)N1CC2=C(CN(C(=O)CO)C2)C1 (centres unmarked) [Compound 10] |  | 0.4 nM |  |
| CC(C)CC(NC(=O)C(Cc1ccccc1)NC(=O)C(N)Cc1ccccc1)C(=O)NC(CCCCN)C(=O)N1CC2=C(CN(CC(=O)O)C2)C1 (centres unmarked) [Compound 4] |  | 0.047 nM | < 0.1 nM |
| CCOC(=O)CN1CC2CC(C1)N2C(=O)C(CCCCN)NC(=O)C(CC(C)C)NC(=O)C(Cc1ccccc1)NC(=O)C(N)Cc1ccccc1 (centres unmarked) [Compound 35] | 0.03 mpk | 0.01 nM | < 0.1 nM |
| CC(C)CC(NC(=O)C(Cc1ccccc1)NC(=O)C(N)Cc1ccccc1)C(=O)NC(CCCCN)C(=O)N1C2CC1CN(CC(=O)O)C2 (centres unmarked) [Compound 36] | 0.04 mpk | 0.015 nM | < 0.1 nM |
| CC(C)CC(NC(=O)C(Cc1ccccc1)NC(=O)C(C)(N)Cc1ccccc1)C(=O)NC(CCCCN)C(=O)N1CC2CC(C1)N2CC(=O)O (centres unmarked) [Compound 57] | 0.26 mpk |  |  |
| CC(C)CC(NC(=O)C(Cc1ccccc1)NC(=O)C(N)Cc1ccccc1)C(=O)NC(CCCCN)C(=O)N1C2CC1CN(CC(=O)N(CC(=O)O)CC(=O)O)C2 (centres unmarked) [Compound 99] |  | 0.016 nM |  |
| CC(C)CC(NC(=O)C(Cc1ccccc1)NC(=O)C(N)Cc1ccc(O)cc1)C(=O)NC(CCCCN)C(=O)N1C2CC1CN(CC(=O)O)C2 (centres unmarked) [Compound 90] (H-YFLK-X4; configuration not given here) | 0.98 mpk |  |  |
| CC(C)CC(NC(=O)C(Cc1ccccc1)NC(=O)C(N)Cc1ccccc1)C(=O)NC(CCCCN)C(=O)N1C2CC1CN(CC(N)=O)C2 (centres unmarked) [Compound 37] | 0.08 mpk | 0.083 nM | < 0.1 nM |
| CC(C)CC(NC(=O)C(Cc1ccccc1)NC(=O)C(N)Cc1ccccc1)C(=O)NC(CCCCN)C(=O)N1C2CNCC1C2 (centres unmarked) [Compound 32] |  | 0.02 nM |  |
| CC(C)CC(NC(=O)C(Cc1ccccc1)NC(=O)C(N)Cc1ccccc1)C(=O)NC(CCCCN)C(=O)N1C2CC1CN(S(C)(=O)=O)C2 (centres unmarked) [Compound 39] | 0.18 mpk |  |  |
| CC(C)CC(NC(=O)C(Cc1ccccc1)NC(=O)C(N)Cc1ccccc1)C(=O)NC(CCCCN)C(=O)N1C2CC1CN(C(=O)CN(CC(=O)O)CC(=O)O)C2 (centres unmarked) [Compound 102] |  | 0.012 nM |  |
| CC(C)CC(NC(=O)C(Cc1ccccc1)NC(=O)C(N)Cc1ccccc1)C(=O)NC(CCCCN)C(=O)N1C2CC1CN(CC(=O)OCc1ccccc1)C2 (centres unmarked) [Compound 49] |  | 0.016 nM |  |
